Like-named read-outs stand apart in the source and are kept apart here.
Tests used:
[1] = system: BCL6 reporter construct (3xBCL6-TK-Luc) in SuDHL4 cells; test: Cell-based luciferase assay
Protocol: Cell-Based Luciferase Assay
A BCL6 reporter construct containing three copies of the consensus BCL6 binding site, the TK promoter, and the firefly luciferase gene was stably expressed in SuDHL4 cells after lentivirus infection and selection with Blasticidin. SuDHL4-3×BCL6-TK-Luc cells were seeded into a Viewplate 384-well assay dish at 15,000 cells/well in 25 ul medium (Alpha-MEM high glucose containing 10% FBS, 25 mM HEPES, […] GlutaMAX, 100 ug/ml Normocin, and […] Gentamycin, Invitrogen). A HP D300 digital dispenser was used to dose cells with DMSO or test compounds across a 10-point range of concentrations (high dose of 10 uM), and cultures were grown in a humidified 5% CO2 incubator at 37° C. After two days, plates were removed from the incubator and equilibrated to room temperature. An equal volume of neolite reporter gene assay reagent was added to each well, and samples were processed according to manufacturer's instructions (Perkin Elmer). Luminescent signal was measured using an Envision plate reader equipped with a US-Luminescence detector.

Karpas422 cells = test: Tumor cell growth inhibition assay; format: cell-based
Protocol: Tumor Cell Growth inhibition Assay
Karpas422 cells were seeded into a 96-well plate at 2,000 cells/well in 150 ul medium (Alpha-MEM containing 10% FBS, […] Normocin, and […] Gentamycin, Invitrogen). A HP D300 digital dispenser was used to dose cells with DMSO or test compounds across a 10-point range of concentrations (high dose of 5 uM), and cultures were grown in a humidified 5% CO2 incubator at 37° C. After six days, plates were removed from incubator and equilibrated to room temperature. An equal volume of ATPlite assay reagent was added to each well, and samples were processed according to manufacturer's instructions (Perkin Elmer). Luminescent signal was measured using an Envision plate reader equipped with a US-Luminescence detector.

BCL6 BTB domain = BCL6 BTB domain (Homo sapiens (Human), UniProt P41182); test: Surface plasmon resonance (SPR) assay; format: binding; conditions: BCL6 BTB domain captured on SA chip, single cycle kinetics
[2] = Homo sapiens, SU-DHL-4, 48 h, read-out: Luciferase-Assay EC50, uM), SuDHL4-3xBCL6-TK-Luc cells, two days, high dose 10 uM
[3] = Homo sapiens, KARPAS-422, 144 h, read-out: Tumor Growth Inhibition in Karpas-422 (IC50, uM), Karpas422 cells, six days, ATPlite
[4] = read-out: Tumor Growth Inhibition in Karpas-422 (IC50), Karpas422 cells, six days, ATPlite

| Compound | EC50 [1, 2] [µM] | IC50 (Karpas422 cells; [3]) [µM] | Kd (BCL6 BTB domain) [nM] | further results |
| --- | --- | --- | --- | --- |
| CC(C)[C@H]1CN(C)CCN1c1cc(NC(=O)Cn2cc(-c3cc(Cl)c(O)c(C(N)=O)c3)c3c(=O)n(C)cnc32)c(Cl)cn1 [Compound I-360] | 0.659 | 0.778 | 30.9 | – |
| Cn1cnc2c(c(-c3cc(Cl)c(O)c(C(N)=O)c3)cn2CC(=O)Nc2cc(N3CC(C)(C)NC(C)(C)C3)ncc2Cl)c1=O [Compound I-201] | 0.317 | 0.155 | 11.1 | – |
| CN1C(C)(C)CN(c2cc(NC(=O)Cn3cc(-c4cc(Cl)c(O)c(C(N)=O)c4)c4c(=O)n(C)cnc43)c(Cl)cn2)CC1(C)C [Compound I-146] | 0.182 | 0.121 | 18.4 | – |
| CO[C@@H]1CN(c2cc(NC(=O)Cn3cc(-c4cc(Cl)c(O)c(C(N)=O)c4)c4c(=O)n(C)c(C)nc43)c(Cl)c(F)n2)C[C@@H]1F [Compound I-399] | 0.268 | 0.535 | 30.7 | – |
| CN(C)c1cc(NC(=O)Cn2cc(-c3cc(Cl)c(O)c(C(N)=O)c3)c3c(=O)n(C)c(Nc4cc(N(C)C)ncc4Cl)nc32)c(Cl)cn1 [Compound I-291, 3-chloro-5-(2-((5-chloro-2-(dimethylamino)pyridin-4-yl)amino)-7-(2-((5-chloro-2-(dimethylamino)pyridin-4-yl)amino)-2-oxoethyl)-3-methyl-4-oxo-4,7-dihydro-3H-pyrrolo[2,3-d]pyrimidin-5-yl)-2-hydroxybenzamide] | 1.76 | 0.908 | – | – |
| Cn1cnc2c(c(-c3cc(C(N)=O)c(O)c(F)c3F)cn2CC(=O)Nc2cc(N3CCC3)nc(F)c2Cl)c1=O [Compound I-488] | 1.28 | 0.417 | 71.6 | – |
| C[C@H](C1CC1)N1CCN(c2cc(NC(=O)Cn3cc(-c4cc(C(N)=O)c(O)c(F)c4F)c4c(=O)n(C)cnc43)c(Cl)c(F)n2)[C@@H](C)C1 [Compound I-455] | 0.307 | 0.204 | 11.2 | – |
| C[C@@H]1CN(c2cc(NC(=O)Cn3cc(-c4cc(F)c(O)c(C(N)=O)c4)c4c(=O)n(C)cnc43)c(Cl)cn2)C[C@H](C)N1 [Compound I-218] | 0.975 | 0.563 | 16.4 | – |
| Cn1cnc2c(c(-c3cc(F)c(O)c(C(N)=O)c3)cn2CC(=O)Nc2cc(N3CCCC3)nc(F)c2Cl)c1=O [Compound I-419] | 0.348 | 0.22 | 5.85 | – |
| CN1CC2CC1CN2c1cc(NC(=O)Cn2cc(-c3cc(C(N)=O)c(O)c(F)c3F)c3c(=O)n(C)cnc32)c(Cl)cn1 (centres unmarked) [Compound I-324] | 10 | 10 | 264 | – |
| Cn1cnc2c(c(-c3cc(Cl)c(O)c(C(N)=O)c3)cn2CC(=O)Nc2ccc(C#N)cc2Cl)c1=O [Compound I-384] | 1.18 | 0.8 | 115 | – |
| Cn1cnc2c(c(-c3cc(Cl)c(O)c(C(N)=O)c3)cn2CC(=O)NC2CCCc3ccncc32)c1=O (centres unmarked) [Compound I-255] | – | – | 6110 | – |
| Cn1cnc2c(c(-c3cc(Cl)c(O)c(C(N)=O)c3)cn2CC(=O)Nc2cc(N3CCn4cc(C(F)(F)F)nc4C3)ncc2Cl)c1=O [Compound I-165] | 0.466 | – | 14.9 | – |
| C[C@H]1COCCN1c1cc(NC(=O)Cn2cc(-c3cc(Cl)c(O)c(C(N)=O)c3)c3c(=O)n(C)cnc32)c(Cl)cn1 [Compound I-239] | – | – | – | IC50 (Karpas422 cells; [4]): 0.316 µM |
| Cc1nc2c(c(-c3cc(C(N)=O)c(O)c(F)c3F)cn2CC(=O)Nc2cc(N3CCN(CC4CC4)C[C@@H]3C)ncc2Cl)c(=O)n1C [Compound I-339] | 0.454 | 0.237 | – | – |
| [2H]C1(C([2H])([2H])N2CCN(c3cc(NC(=O)Cn4cc(-c5cc(C(N)=O)c(O)c(F)c5F)c5c(=O)n(C)cnc54)c(Cl)cn3)[C@@H](C)C2)CC1 [Compound I-370] | 0.61 | 1.31 | – | – |
| Cn1cnc2c(c(-c3cc(Cl)c(O)c(C(N)=O)c3)cn2CC(=O)N[C@@H]2CCCC[C@H]2OC(=O)C(F)(F)F)c1=O [Compound I-254, (1R,2R)-2-(2-(5-(3-carbamoyl-5-chloro-4-hydroxyphenyl)-3-methyl-4-oxo-3,4-dihydro-7H-pyrrolo[2,3-d]pyrimidin-7-yl)acetamido)cyclohexyl 2,2,2-trifluoroacetate] | – | – | 3880 | – |
| CNc1nc2c(c(-c3cc(Cl)c(O)c(C(N)=O)c3)cn2CC(=O)Nc2cc(N3CCOC[C@@H]3C)ncc2Cl)c(=O)n1C [Compound I-268, (S)-3-chloro-5-(7-(2-((5-chloro-2-(3-methylmorpholino)pyridin-4-yl)amino)-2-oxoethyl)-3-methyl-2-(methylamino)-4-oxo-4,7-dihydro-3H-pyrrolo[2,3-d]pyrimidin-5-yl)-2-hydroxybenzamide] | 1.8 | 1.86 | – | – |

| Compound | EC50 [1, 2] [µM] | IC50 (Karpas422 cells; [3]) [µM] | Kd (BCL6 BTB domain) [nM] | further results |
| --- | --- | --- | --- | --- |
| C[C@H]1COCCN1c1cc(NC(=O)Cn2cc(-c3cc(Cl)c(O)c(C(N)=O)c3)c3c(=O)n(C)c(N(C)C)nc32)c(Cl)cn1 [Compound I-263, (S)-3-chloro-5-(7-(2-((5-chloro-2-(3-methylmorpholino)pyridin-4-yl)amino)-2-oxoethyl)-2-(dimethylamino)-3-methyl-4-oxo-4,7-dihydro-3H-pyrrolo[2,3-d]pyrimidin-5-yl)-2-hydroxybenzamide] | 2.07 | 0.745 | – | – |
| CN1CCC2(C1)CN(c1cc(NC(=O)Cn3cc(-c4cc(C(N)=O)c(O)c(F)c4F)c4c(=O)n(C)cnc43)c(Cl)cn1)C2 [Compound I-485] | – | – | 805 | – |
| C[C@H]1CN(C)CCN1c1cc(NC(=O)Cn2cc(-c3cc(F)c(O)c(C(N)=O)c3)c3c(=O)n(C)c(C(F)(F)F)nc32)c(Cl)cn1 [Compound I-233] | 0.161 | – | 23.7 | – |
| Cc1nc2c(c(-c3cc(Cl)c(O)c(C(N)=O)c3)cn2CC(=O)Nc2cc(N3CCN(CC4CC4)C[C@@H]3C)ncc2Cl)c(=O)n1C [Compound I-338] | 0.163 | 0.231 | – | – |
| Cn1cnc2c(c(-c3cc(Cl)c(O)c(C(N)=O)c3)cn2CC(=O)NC2CCCc3ncccc32)c1=O (centres unmarked) [Compound I-257] | – | – | 3640 | – |
| Cc1nc2c(c(-c3cc(Cl)c(O)c(C(N)=O)c3)cn2CC(=O)Nc2cc(N3CCN(C4COC4)C[C@@H]3C)ncc2Cl)c(=O)n1C [Compound I-336] | 0.0383 | 0.0502 | – | – |
| CN1CCN(c2ccc(Cl)c(NC(=O)Cn3cc(-c4cc(Cl)c(O)c(C(N)=O)c4)c4c(=O)n(C)cnc43)n2)CC1 [Compound I-175] | – | 4.79 | 429 | – |
| CN1CC2CC(C1)N2c1cc(NC(=O)Cn2cc(-c3cc(F)c(O)c(C(N)=O)c3)c3c(=O)n(C)cnc32)c(Cl)cn1 [Compound I-450] | – | – | 43.6 | – |
| C[C@H]1CN(CC(F)(F)F)CCN1c1cc(NC(=O)Cn2cc(-c3cc(Cl)c(O)c(C(N)=O)c3)c3c(=O)n(C)c(C(F)(F)F)nc32)c(Cl)cn1 [Compound I-253] | – | – | 2100 | – |
| C[C@H]1COCCN1c1cc(NC(=O)Cn2cc(-c3cc(Cl)c(O)c(C(N)=O)c3)c3c(=O)n(C)cnc32)c(Cl)cn1 [Compound I-35] | – | – | – | IC50 (Karpas422 cells; [4]): 0.133 µM |
| Cn1cnc2c(c(-c3cc(C(N)=O)c(O)cn3)cn2CC(=O)Nc2cc(N3CCOCC3)ncc2Cl)c1=O [Compound I-143, 2-(7-(2-((5-chloro-2-morpholinopyridin-4-yl)amino)-2-oxoethyl)-3-methyl-4-oxo-4,7-dihydro-3H-pyrrolo[2,3-d]pyrimidin-5-yl)-5-hydroxyisonicotinamide] | 6.2 | – | 250 | – |
| COc1c(O)c(C(N)=O)cc(-c2cn(CC(=O)Nc3cc(N4CCN(C)C[C@@H]4C)ncc3Cl)c3nc(C(F)(F)F)n(C)c(=O)c23)c1F [Compound I-266] | 1.61 | 2.78 | – | – |
| CCOc1cc(-c2cn(CC(=O)Nc3cc(N4CCOC[C@@H]4C)ncc3Cl)c3ncn(C)c(=O)c23)cc(C(N)=O)c1O [Compound I-144] | 10 | 10 | – | – |
| C[C@H]1CN(CC2CC2)CCN1c1cc(NC(=O)Cn2cc(-c3cc(C(N)=O)c(O)c(F)c3F)c3c(=O)n(C)cnc32)c(Cl)cn1 [Compound I-307] | 0.464 | 0.676 | – | – |
| (S)-3-chloro-5-(7-(2-((5-chloro-2-(3-methylmorpholino)pyridin-4-yl)amino)-2-oxoethyl)-3-methyl-4-oxo-2-phenyl-4,7-dihydro-3H-pyrrolo[2,3-d]pyrimidin-5-yl)-2-hydroxybenzamide [Compound I-247] | – | – | – | EC50 ([1]; SuDHL4-3xBCL6-TK-Luc cells, two days, high dose 10 uM, read-out: Luciferase-Assay EC50): 15.2 µM; IC50 (Karpas422 cells; Karpas422 cells, six days, ATPlite, read-out: Tumor Growth Inhibition in Karpas-422 (IC50)): 0.628 µM |
| CN1CC2CC(C1)N2c1cc(NC(=O)Cn2cc(-c3cc(C(N)=O)c(O)c(F)c3F)c3c(=O)n(C)cnc32)c(Cl)cn1 [Compound I-451] | – | – | 157 | – |
| Cc1nc2c(c(-c3cc(Cl)c(O)c(C(N)=O)c3)cn2CC(=O)Nc2ccncc2Br)c(=O)n1C [Compound I-337] | 1.55 | 1.93 | – | – |
